Test results as given in US7138361B2, “Herbicidal heterocycles” (E. I. du Pont de Nemours and Company, priority 2000, dated 2006).

Columns and labels:
Type in all cases: in vivo
[1] = test system: goosegrass (Eleusine indica); test: Test C preemergence; settings: for Plant response rating (0 to 100), Goosegrass: visual evaluation after 12 to 14 days
Summary of the method: (§1)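 Seeds are planted and treated before emergence; for the postemergence test, plants at 1- to 4-leaf stage (2–18 cm) receive the same formulation, a solvent blend containing surfactant. Plants stay in the greenhouse 12–14 days, then response is scored visually from 0 (none) to 100 (complete control).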

[2] = test system: pigweed (Amaranthus retroflexus); test: Test C preemergence
Summary of the method: as §1

[3] = test system: kochia (Kochia scoparia); test: Test C preemergence; settings: for Plant response rating (0 to 100), Kochia: visual evaluation after 12 to 14 days
Summary of the method: as §1

[4] = test system: bermudagrass (Cynodon dactylon); test: Test C preemergence; settings: for Plant response rating (0 to 100 where 0 is no effect and 100 is complete control), Bermudagrass: visual evaluation after 12 to 14 days
Summary of the method: as §1

[5] = test system: common ragweed (Ambrosia elatior); test: Test C preemergence
Summary of the method: as §1

[6] = test system: corn (Zea mays); test: Test C preemergence; settings: for Plant response rating (0 to 100), Corn: visual evaluation after 12 to 14 days
Summary of the method: as §1

[7] = test system: Nightshade; test: Test C preemergence
[8] = test system: soybean (Glycine max); test: Test C preemergence
Summary of the method: as §1

[9] = test system: woolly cupgrass (Eriochloa villosa); test: Test C preemergence; settings: for Plant response rating (0 to 100), Cupgrass, Woolly: visual evaluation after 12 to 14 days
Summary of the method: as §1

[10] = test system: morningglory (Ipomoea hederacea); test: Test C preemergence
Summary of the method: as §1

[11] = test system: johnsongrass (Sorghum halepense); test: Test C preemergence; settings: for Plant response rating (0 to 100), Johnsongrass: visual evaluation after 12 to 14 days
Summary of the method: as §1

[12] = test system: giant foxtail (Setaria faberii); test: Test C preemergence; settings: for Plant response rating (0 to 100), Foxtail, Giant: visual evaluation after 12 to 14 days
Summary of the method: as §1

[13] = test system: Sunflower; test: Test C preemergence; settings: Rate 125 g/ha; scale 0 to 100, 0 no effect, 100 complete control
[14] = test system: crabgrass (Digitaria sanguinalis); test: Test C preemergence; settings: for Plant response rating (0 to 100), Crabgrass: visual evaluation after 12 to 14 days
Summary of the method: as §1

[15] = test system: yellow nutsedge (Cyperus esculentus); test: Test C preemergence
Summary of the method: as §1

[16] = test system: lambsquarters (Chenopodium album); test: Test C preemergence
Summary of the method: as §1

[17] = test system: cocklebur (Xanthium strumarium); test: Test C preemergence; settings: for Plant response rating (0 to 100), Cocklebur: visual evaluation after 12 to 14 days
Summary of the method: as §1

[18] = test system: Surinam grass (Brachiaria decumbens); test: Test C preemergence; settings: for Plant response rating (0 to 100), Surinam grass: visual evaluation after 12 to 14 days
Summary of the method: as §1

[19] = test system: velvetleaf (Abutilon theophrasti); test: Test C preemergence
Summary of the method: as §1

[20] = test system: Sunflower; test: Test C preemergence; settings: Rate 500 g/ha, visual evaluation after 12 to 14 days
[21] = test system: barnyardgrass (Echinochloa crus-galli); test: Test C flooded paddy test; settings: for Barnyardgrass plant response rating: Flooded Paddy, scale 0 to 100, 0 no effect, 100 complete control; for Plant response rating, Barnyardgrass: flooded paddy test, scale 0 to 100 (0 no effect, 100 complete control)
Summary of the method: (§2)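 Response on a 0-to-100 scale (no effect to complete control) was assessed by eye versus controls. Plants had reached 2 leaves when treated in flooded paddy conditions. The assessment took place after 12–14 days of greenhouse growth.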

[22] = test system: rice (Oryza saliva); test: Test C flooded paddy test; settings: for Rice plant response rating: Flooded Paddy, scale 0 to 100, 0 no effect, 100 complete control; for Plant response rating, Rice: flooded paddy test, scale 0 to 100 (0 no effect, 100 complete control)
Summary of the method: as §2

[23] = Rate 125 g/ha, scale 0 to 100, 0 no effect, 100 complete control
[24] = preemergence, Rate 62 g/ha, scale 0 to 100
[25] = preemergence, Rate 500 g/ha, visual evaluation after 12 to 14 days
[26] = preemergence, Rate 250 g/ha, scale 0 to 100, 0 no effect, 100 complete control

CSc1cccc(N2CCC(n3ccc(C(C)(C)C)n3)C2=O)c1 (centres unmarked) [Compound 86]
100: Plant response rating, Goosegrass [1, 24] | Plant response rating (0 to 100), Goosegrass ([1]; preemergence, Rate 250 g/ha) | Plant response rating (0 to 100), Goosegrass ([1]; preemergence, Rate 500 g/ha) | Plant response rating, Pigweed [2, 23] | Plant response rating (0 to 100), Pigweed [2, 25] | Plant response rating (0 to 100), Kochia ([3]; preemergence, Rate 250 g/ha) | Plant response rating (0 to 100), Kochia ([3]; preemergence, Rate 500 g/ha) | Plant response rating (0 to 100 where 0 is no effect and 100 is complete control), Bermudagrass ([4]; preemergence, Rate 500 g/ha) | Plant response rating (0 to 100), Cupgrass, Woolly ([9]; preemergence, Rate 500 g/ha) | Plant response rating (0 to 100), Foxtail, Giant ([12]; preemergence, Rate 500 g/ha) | Plant response rating (0 to 100), Crabgrass ([14]; preemergence, Rate 250 g/ha) | Plant response rating (0 to 100), Crabgrass ([14]; preemergence, Rate 500 g/ha) | Plant response rating, Lambsquarters [16, 23] | Plant response rating, Lambsquarters [16, 24] | Plant response rating (0 to 100), Lambsquarters [16, 25] | Plant response rating, Lambsquarters [16, 26] | Barnyardgrass plant response rating ([21]; Rate 250 g/ha) | Barnyardgrass plant response rating ([21]; Rate 500 g/ha)
20: Plant response rating, Johnsongrass [11, 23] | Plant response rating, Johnsongrass [11, 24] | Plant response rating, Sunflower [13] | Plant response rating, Surinam grass [18, 23] | Plant response rating, Surinam grass [18, 24] | Plant response rating (0 to 100), Surinam grass ([18]; preemergence, Rate 250 g/ha) | Plant response rating (0 to 100), Sunflower [20] | Rice plant response rating ([22]; Rate 500 g/ha)
40: Plant response rating (0 to 100), Johnsongrass ([11]; preemergence, Rate 250 g/ha)
30: Plant response rating, Bermudagrass [4, 23] | Plant response rating (0 to 100), Corn ([6]; preemergence, Rate 500 g/ha) | Plant response rating, Cupgrass, Woolly [9, 23] | Plant response rating, Cupgrass, Woolly [9, 24] | Plant response rating (0 to 100), Surinam grass ([18]; preemergence, Rate 500 g/ha) | Plant response rating, Barnyardgrass ([21]; Rate 125 g/ha)
50: Plant response rating (0 to 100), Johnsongrass ([11]; preemergence, Rate 500 g/ha)
80: Plant response rating (0 to 100), Foxtail, Giant ([12]; preemergence, Rate 250 g/ha)
0: Plant response rating, Pigweed [2, 26] | Plant response rating, Ragweed, Common [5, 23] | Plant response rating, Ragweed, Common [5, 24] | Plant response rating (0 to 100), Ragweed, Common [5, 25] | Plant response rating, Ragweed, Common [5, 26] | Plant response rating, Corn [6, 23] | Plant response rating, Corn [6, 24] | Plant response rating (0 to 100), Corn ([6]; preemergence, Rate 250 g/ha) | Plant response rating, Nightshade ([7]; Rate 62 g/ha, scale 0 to 100) | Plant response rating, Nightshade [7, 23] | Plant response rating, Nightshade ([7]; Rate 250 g/ha, scale 0 to 100, 0 no effect, 100 complete control) | Plant response rating, Soybean [8, 23] | Plant response rating, Soybean [8, 24] | Plant response rating (0 to 100), Soybean [8, 25] | Plant response rating, Soybean [8, 26] | Plant response rating, Morningglory [10, 23] | Plant response rating, Morningglory [10, 24] | Plant response rating, Morningglory [10, 26] | Plant response rating, Foxtail, Giant [12, 23] | Plant response rating, Foxtail, Giant [12, 24] | Plant response rating, Crabgrass [14, 24] | Plant response rating, Nutsedge [15, 23] | Plant response rating, Nutsedge [15, 24] | Plant response rating (0 to 100), Nutsedge [15, 25] | Plant response rating, Nutsedge [15, 26] | Plant response rating, Cocklebur [17, 23] | Plant response rating, Cocklebur [17, 24] | Plant response rating (0 to 100), Cocklebur ([17]; preemergence, Rate 250 g/ha) | Plant response rating (0 to 100), Cocklebur ([17]; preemergence, Rate 500 g/ha) | Plant response rating, Velvetleaf [19, 23] | Plant response rating, Velvetleaf [19, 24] | Plant response rating, Velvetleaf [19, 26] | Plant response rating, Barnyardgrass ([21]; Rate 62 g/ha) | Rice plant response rating ([22]; Rate 250 g/ha) | Plant response rating, Rice ([22]; Rate 62 g/ha) | Plant response rating, Rice ([22]; Rate 125 g/ha)
10: Plant response rating, Bermudagrass [4, 24]
90: Plant response rating, Goosegrass [1, 23] | Plant response rating, Kochia [3, 23] | Plant response rating (0 to 100 where 0 is no effect and 100 is complete control), Bermudagrass ([4]; preemergence, Rate 250 g/ha) | Plant response rating (0 to 100), Cupgrass, Woolly ([9]; preemergence, Rate 250 g/ha) | Plant response rating, Crabgrass [14, 23]
70: Plant response rating, Pigweed [2, 24] | Plant response rating, Kochia [3, 24] | Plant response rating (0 to 100), Velvetleaf [19, 25]
